Data taken from patent publication US5627270A, “Glycosylated steroid derivatives for transport across biological membranes and process for making and using same” (Trustees of Princeton University, priority 1994, dated 1997).
“Also recorded” adds a separate entry of the source.

Key:
Crithidia fasciculate = conditions: antifungal agent alone; cited from earlier work
[1] = Enhanced transmucosal delivery of co-administered agents in rat ileum or colon; type: in vivo
[2] = rat, in vivo
[3] = rat, in vivo, 100000 uM
[4] = rat, in vivo; remark: listed apart in the source
[5] = rat, in vivo; remark: listed apart in the source
[6] = Plasma calcitonin after ileal co-administration in the rat; conditions: absence of 1

For `CCCCCCCCSCCCCCCCCC(=O)O` [Entry 10-TSA, 10-thiastearic acid], the IC50 (Crithidia fasciculate) is given as 10 µM.

For `COC(=O)CC[C@@H](C)[C@H]1CC[C@H]2[C@@H]3[C@H](O[C@H]4O[C@H](CO)[C@@H](O)[C@H](O)[C@H]4O)C[C@@H]4C[C@@H](N)CC[C@]4(C)[C@H]3C[C@H](O[C@H]3O[C@H](CO)[C@@H](O)[C@H](O)[C@H]3O)[C@]12C` [Compound 1, 3β-amino-7α,12α-di(1'α-glucosyl)-5β-cholic acid methyl ester], the “plasma levels of co-administered agents” value [1] was “increase the plasma levels of proteinaceous compounds; also recorded: resembled pharmacokinetic profiles of agents administered intravenously”, the “plasma concentrations of gentamicin versus concentration of 1” value [2] was “increasing plasma concentrations of the gentamicin” and the “peak plasma levels of vancomycin” value [3] was 15 to 47 µg/mL. For the same compound, the “time to almost peak gentamicin levels” value ([4]; 10000 uM) was at most 10 min, the “ileal bioavailability of gentamicin” value ([4]; 30000 uM) was 19.8% and the “plasma calcitonin versus amount of 1” value [5] was “plasma calcitonin levels rise with increasing amounts of 1”. For the same compound, the “bioavailability of calcitonin” value ([5]; po) was “significant amounts of calcitonin are made available with co-administration of 1”.

In the case of calcitonin, the “plasma calcitonin” value [6] is reported as “no appreciable amounts of calcitonin are found in the blood”.
